# Structures can show the parent of a compound that is named as a salt. Where two headings read alike, the source gives them in different places.
# Tests used:
# [1] = reported, no reference given, cited from earlier work
# P-glycoprotein = details: result in words; cited from earlier work
# [2] = tested on: MAO (MAO-A, MAO-B or total activity); details: read-out: IC50 for MAO; depending on subclass of MAO-A or MAO-B, or total activity; reported, no reference given; cited from earlier work
# [3] = molecular target: purified E. coli GUS enzyme (Escherichia coli, UniProt P05804); assay: E. coli GUS enzyme assay; type: biochemical
# Sequence of purified E. coli GUS enzyme (P05804 whole entry): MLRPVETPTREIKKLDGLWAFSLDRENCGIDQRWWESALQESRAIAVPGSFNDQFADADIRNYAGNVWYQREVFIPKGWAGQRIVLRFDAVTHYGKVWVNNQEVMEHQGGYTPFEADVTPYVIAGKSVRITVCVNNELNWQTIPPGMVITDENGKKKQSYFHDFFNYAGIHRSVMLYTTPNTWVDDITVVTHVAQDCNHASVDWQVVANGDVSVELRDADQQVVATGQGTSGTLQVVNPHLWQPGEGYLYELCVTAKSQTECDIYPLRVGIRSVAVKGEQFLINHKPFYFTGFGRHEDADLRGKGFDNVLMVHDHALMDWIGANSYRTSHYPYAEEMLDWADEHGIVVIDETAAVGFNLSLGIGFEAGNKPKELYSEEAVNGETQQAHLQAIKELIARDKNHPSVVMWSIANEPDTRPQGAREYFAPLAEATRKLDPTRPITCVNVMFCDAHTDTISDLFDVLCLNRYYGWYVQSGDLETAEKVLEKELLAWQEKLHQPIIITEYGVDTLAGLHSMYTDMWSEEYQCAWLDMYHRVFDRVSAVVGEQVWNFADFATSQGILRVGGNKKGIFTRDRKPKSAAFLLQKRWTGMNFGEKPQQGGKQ
# E. coli cells = assay: Toxicity assay; details: MTS, 50 μg/ml, positive control
# [4] = molecular target: T1, mammalian GUS purified from Bovine taurus liver (Bos taurus, UniProt A3KMY8); assay: B. taurus GUS enzyme assay; type: biochemical; details: for activity against purified mammalian GUS: result in words
# T1 sequence (A3KMY8 1-652): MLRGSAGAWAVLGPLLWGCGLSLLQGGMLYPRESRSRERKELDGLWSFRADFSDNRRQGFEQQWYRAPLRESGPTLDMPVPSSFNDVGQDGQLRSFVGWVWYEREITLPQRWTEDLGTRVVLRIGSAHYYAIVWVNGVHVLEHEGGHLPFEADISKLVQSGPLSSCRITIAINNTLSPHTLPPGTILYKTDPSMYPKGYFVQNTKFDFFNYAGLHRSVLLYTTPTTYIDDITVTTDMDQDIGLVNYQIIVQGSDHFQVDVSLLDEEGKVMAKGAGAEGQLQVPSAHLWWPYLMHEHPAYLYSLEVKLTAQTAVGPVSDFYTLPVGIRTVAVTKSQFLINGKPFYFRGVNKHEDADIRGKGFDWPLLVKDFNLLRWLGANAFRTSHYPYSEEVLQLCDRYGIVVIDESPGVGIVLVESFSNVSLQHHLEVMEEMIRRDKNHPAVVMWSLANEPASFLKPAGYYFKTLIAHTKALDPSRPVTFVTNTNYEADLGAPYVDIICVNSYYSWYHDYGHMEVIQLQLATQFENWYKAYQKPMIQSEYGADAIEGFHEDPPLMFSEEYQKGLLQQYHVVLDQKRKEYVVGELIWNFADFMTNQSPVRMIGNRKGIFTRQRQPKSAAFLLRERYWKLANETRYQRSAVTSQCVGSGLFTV
# [5] = molecular target: endogenous GUS in living intact E. coli (DH5α) (Escherichia coli, UniProt P05804); assay: E. coli cell-based GUS activity assay; details: IC50 shift; for fold less potent in cell-based assay compared to E. coli GUS enzyme assay: less potent in cells
# Sequence of endogenous GUS in living intact E. coli (DH5α) (P05804 whole entry): as the sequence (P05804 whole entry) above
# in vitro = details: E. coli
compound,measurement,setting,value
"Clc1ccc2c(c1)C(N1CCNCC1)=Nc1ccccc1O2 [Amoxapine, amoxapine]",normal blood levels,[1]; converted from μg/ml,54 to 669 nM
same,normal blood levels,[1],0.017 to 0.21 µg/mL
same,inhibition of P-glycoprotein,P-glycoprotein,potent non-competitive inhibitors
"NNCCc1ccccc1 [Phenelzine, phenelzine]",IC50,[2],70 to 900 nM
same,inhibition in Prestwick collection screen,"[3]; single point, 10 μM compound, high throughput GUS enzyme assay, 10 µM",> 50%
"NC[C@H]1O[C@H](O[C@H]2[C@H](O)[C@@H](O[C@H]3O[C@H](CO)[C@@H](O)[C@H](N)[C@H]3O)[C@H](N)C[C@@H]2N)[C@H](O)[C@@H](O)[C@@H]1O [Kanamycin, kanamycin]",reduction of activity in viability assay,E. coli cells,over 90%
"CN1CCN(C2=Nc3ccccc3Oc3ccc(Cl)cc32)CC1 [Loxapine, loxapine]",inhibition of P-glycoprotein,P-glycoprotein,potent non-competitive inhibitors
same,loss in potency versus amoxapine,"[3]; E. coli GUS enzyme assay, methyl group on the piperazine ring",> 250 fold
"Cc1cc(C(=O)NNCc2ccccc2)no1 [Isocarboxazid, isocarboxazid]",IC50,[4],> 100000 nM
same,activity against purified mammalian GUS,[4],no significant activity
"OC(c1cc(C(F)(F)F)nc2c(C(F)(F)F)cccc12)C1CCCCN1 (stereo not drawn) [Mefloquine, mefloquine hydrochloride]",fold less potent in cell-based assay compared to E. coli GUS enzyme assay,[5],over 4.9 fold
same,fold less potent in cell-based assay compared to E. coli GUS enzyme assay,[5]; listed as mefloquine,5 fold
same,"viability at 2 h, 10 µM",in vitro,100%
"O=C(CCNNC(=O)c1ccncc1)NCc1ccccc1 [Nialamide, nialamide]",fold more potent in cell-based assay compared to E. coli GUS enzyme assay,[5]; more potent in cells,4 fold
same,activity against purified mammalian GUS,[4],no significant activity
